Key:
[1] = test system: premalignant lesions in mouse mammary gland organ culture; assay: Mammary gland organ culture model; assay type: cell-based; as to mammary gland organ culture: key: −: Not active; +: Slightly active; + +: Moderately active; + + +: Strongly active; + + + +: Highly active
Text: Test compounds identified by the above methods can be tested for antineoplastic activity by their ability to inhibit the incidence of pre-neoplastic lesions in a mammary gland organ culture system. This mouse mammary gland organ culture technique has been successfully used by other investigators to study the effects of known antineoplastic agents such as certain NSAIDs, retinoids, tamoxifen, selenium, and certain natural products, and is useful for validation of the screening method of the present invention.
For example, female BALB/c mice can be treated with a combination of estradiol and progesterone daily, in order to prime the glands to be responsive to hormones in vitro. The animals are sacrificed, and thoracic mammary glands are excised aseptically and incubated for ten days in growth media supplemented with insulin, prolactin, hydrocortisone, and aldosterone. DMBA (7,12-dimethylbenz(a)anthracene) is added to medium to induce the formation of premalignant lesions. Fully developed glands are then deprived of prolactin, hydrocortisone, and aldosterone, resulting in the regression of the glands but not the pre-malignant lesions.
The test compound is dissolved in DMSO and added to the culture media for the duration of the culture period. At the end of the culture period, the glands are fixed in 10% formalin, stained with alum carmine, and mounted on glass slides. The incidence of forming mammary lesions is the ratio of the glands with mammary lesions to […]. The incidence of mammary lesions in test compound treated glands is compared with that of the untreated glands.
The extent of the area occupied by the mammary lesions can be quantitated by projecting an image of the gland onto a digitation pad. The area covered by the gland is traced on the pad and considered as 100% of the area. The space covered by each of the non-regressed structures is also outlined on the digitization pad and quantitated by the computer.
Mammary gland organ culture experiment were performed as previously described (Mehta and Moon, Cancer Research, 46: 5832-5835, 1986).

[2] = test system: PKG activity in SW480 colon cancer cells; assay: PKG activity assay in drug-treated SW480 cells; assay type: cell-based, human; settings: SW480, 48 hrs, with and without added cGMP; exisulind 200-600 μM, E4021 0.1-10 μM
Text: The novel PKG assay of this invention involves binding to solid phase plural amino acid sequences, each of which contain at least the cGMP-binding (cGB) domain and the phosphorylation site of phosphodiesterase type 5 (“PDE5”). That sequence is known and described in the literature below. […] One way to bind the PDE5 sequences to a solid phase is to express those sequences as a fusion protein of the PDE5 sequence and one member of an amino acid binding pair, and chemically link the other member of that amino acid binding pair to a solid phase (e.g., beads). One binding pair that can be used is glutathione S-transferase (“GST”) and glutathione (“GSH”), with the GST being expressed as a fusion protein with the PDE5 sequence described above, and the GSH bound covalently to the solid phase. In this fashion, the PDE5 sequence/GST fusion protein can be bound to a solid phase simply by passing a solution containing the fusion protein over the solid phase, as described below.
To assay a liquid sample believed to contain PKG using the PDE5-bound solid phase described above, the sample and the solid phase are mixed with phosphorylation buffer containing ^32P-γ-ATP. […]
For each control or drug cell lysate sample to be evaluated, the reaction is started by adding phosphorylation buffer containing 10 μCi ^32P-γ-ATP solution (200 μM ATP, 4.5 mM MgCl; 5 mM KH2PO4; 5 mM K2HPO4;) to each mixture. […]

HT-29 cells = assay: Growth inhibition of HT-29 cells (SRB assay; trypan blue counting in time course); assay type: cell-based, human; settings: Table 9 qualitative profile

In the case of CC1=C(CC(=O)O)c2cc(F)ccc2/C1=C\c1ccc(S(C)(=O)=O)cc1 [Exisulind, 5-fluoro-2-methyl-1-(p-methylsulfonylbenzylidene)-3-indenylacetic acid], the “inhibition of formation of premalignant lesions” value ([1]; FIG. 17) is reported as “effectively inhibit”, the “Mammary Gland Organ Culture” value ([1]; Table 9 qualitative profile) is reported as “+ + +” and the “PKG activity relative to control” value [2] is reported as “increase in a dose-dependent manner”. For the same compound, the “Growth Inhibition” value (HT-29 cells) was “+ +”.
